Read-outs that look alike come from different tables or passages of the source.
Tests used:
[1] = system: DSS induced acute colitis; conditions: for Hist score (histological score): epithelium 0-4 plus infiltration 0-4; for Hist score (histological score) / Col Length (colon length): tenth day; for Hist score (histological score) / FOB (fecal occult blood) / Weight / DAI (disease active index) / Col Length (colon length): 1 mg/kg (R-B, S-B 10 mg/kg; RS-C 2 mg/kg); for Hist score (histological score) / FOB (fecal occult blood) / Weight / Col Length (colon length): mean ± SD; for FOB (fecal occult blood): grade 0, 2, 4; for FOB (fecal occult blood) / Weight / Col Length (colon length): i.g. daily 8 days; for DAI (disease active index): score 0 to 12, i.g. daily 8 days from 2nd day of DSS, n=5; for colon histology (H&E), in words: Example 1, compared with untreated DSS mice
Source text: In one embodiment, IBD was induced in mice by add DSS into drink water for 7 days. […] (Cooper, S. et al., Clinic pathologic study of dextran sulfate sodium experimental murine colitis, Laboratory Investigation, vol. 69, no. 2, p. 238-249, 1993)
The mice were scarified at day 10th for anatomy and histology evaluations. […] Each of the above histological features was scored individually and added together which is then collectively expressed as “histological score”, for quantitative evaluation (Cooper, S. et al., above).
Male C57BL mice (8-10 weeks, 18-20 g) were grouped into control (drinking water only), DSS and DSS plus treatment groups (n=5). Acute colitis was induced by feeding mice with 2% (w/v) dextran sulfate sodium (DSS) (molecular mass 36-50 kDa) added to the drinking water given ad libitum for 7 days. At the end of seventh day, DSS was removed and animals received only drinking water for 2 days. The animals were euthanized for anatomical and histological examination at the tenth day after DSS ingestion.
R-salbutamol (R-S) (1 mg/kg, S-salbutamol (S-S) (1 mg/kg), R-terbutaline (R-T) (1 mg/kg), S-terbutaline (S-T) (1 mg/kg), R-bambuterol (10 mg/kg), S-bambuterol (S-B) (10 mg/kg), R-clenbuterol (R-C) (1 mg/kg), RS-clenbuterol (RS-C) (2 mg/kg) were administered i.g. daily, starting from the 2nd day of DSS induction for consecutive 8 days. Dexamethasone (Dex), 1 mg/kg) was used as a reference drug.
Evaluation of disease symptoms and histological changes Disease activity index (DAI): Animals were monitored daily for weight, water/food consumption, morbidity, stool consistency and fecal blood. […] The colon length was recorded as an indicator of inflammation. The entire colon was cut open longitudinally and gently flushed with sterile phosphate-buffered saline (PBS) to remove any traces of feces for pathology preparation. Colon segments were fixed in 10% neutral buffered formalin. Tissues were embedded in paraffin, sectioned, mounted on slides. H&E-stained paraffin section images were acquired. Pathological evaluation was conducted in a blinded manner.
Histological Score: the scores were given as follows: epithelium, 0=normal morphology, 1=loss of goblet cells, 2=loss of goblet cells in large areas, 3=loss of crypts, and 4=loss of crypts in large areas; and inflammation cells infiltration, 0=no infiltrate, 1=infiltrate around the crypt basis, 2=infiltrate reaching the muscularis mucosae, 3=extensive infiltration reaching the muscularis mucosae and thickening of the mucosa with abundant edema, and 4=infiltration of the submucosa. Data were presented as mean±the standard deviation (SD).

[2] = system: knee joints (articular cartilage, meniscus); assay: Damage of knee joints in DSS induced IBD mice; type: in vivo; conditions: compared with untreated DSS mice
Source text: In one embodiment, in DSS induced IBD mice, there was also a damage of knee joints. The articular cartilage structure became thinner and partially destroyed. The chondrocytes were degenerated, decreased and clustered. The meniscuses were damaged and lost its structural integrity. In X-ray, the layer of articular cartilage was thinner and bone structure was decreased. […] The articular cartilage and bone structure increased toward normal.

[3] = system: DSS induced sub-acute colitis; type: in vivo; parameters: DAI (disease active index) / FOB (fecal occult blood) / Hist score (histological score): scale not given here; Weight / Col Length (colon length): unit not given here
Source text: This invention also disclosed the used of R-salbutamol for treatment of sub acute or chronic phases of IBD. In one embodiment, IBD was induced by DSS as mentioned above, along with the treatment of R-salbutamol, at day 7th, DSS was removed and replaced with drinking water for additional 2 weeks. The disease active index (DAI) of mice was examined and evaluated periodically. The mice were scarified for pathological and histological evaluations at day of 23rd. In DSS induce IBD mice, there were significant loss of weight and fecal occult blood at day 14th and 22nd. The overall condition of colitis was severe although there was slightly improvement comparing the day 7th. The colon-rector length was significant shortened, and histological score were significant higher from control. In mice with DSS induced colitis, there were significant mononuclear leucocytes infiltration, few newly grew crypts with architectural disarray, denegation of epithelia, mucosa aberrant. There was also deep mucosal lymphocytosis, destruction of lamina propria and sometimes, transmural inflammation.
Same as example 1, except • 1), Three weeks' study with one week treatment.
DSS and all the treatment was removed and replaced with drinking water at the end of 1st week. Mice were given drink water and food ad libitum for additional 2 weeks.

[4] = system: DSS induced sub-acute colitis; assay: Prolonged (two weeks) treatment in DSS induced sub-acute colitis; type: in vivo, mice; conditions: evaluation at 23rd day, salbutamol 1 mg/kg, bambuterol 10 mg/kg
Source text: Same as example 2, except. 1), Two Weeks Treatment within a Three Weeks of Study
DSS was removed from drinking water at the end of 1st week. The treatments were started at 1st day for consecutive 14 days (2 weeks). Only drinking water given for the 3rd week. The evaluation and examination were made at 23rd day as did in example 1.

[5] = system: DNCB induced allergic contact dermatitis; assay: DNCB induced allergic contact dermatitis model (eczema); type: in vivo, mice; conditions: oral 8 days, indomethacin 5 mg/kg
Protocol: Mice was shaved at abdominal area DNCB (100 μL 0.5%) is dissolved and applied to the shaved skin to induce Atopica dermatitis for 2 consecutive days. At day 8th, DNCB was applied to both inner and outer surfaces of ears to induce eczema. Treatment of R-salbutamol and indomethacin were given orally at day 1st for consecutive 8 days. The mice were scarified at day 9th for examination and evaluation. Mice were divided into four groups (n=8), namely A, Control; B. Eczema (DNCB); C. Eczema plus R-Salbutamol of 0.05, 0.1 or 0.2 mg/kg; D. Eczema plus indomethacin of 5 mg/kg. The inflammation scores were evaluated according to swelling, erythema, scratch and thickness of both ears. [table]

[6] = system: TNBS-induced colitis; assay: TNBS-induced colitis (model for Crohn's disease); type: in vivo, Male mice; conditions: TNBS treated mice
Source text: Male mice colitis was induced by rectal co-administration of ethanol and TNBS (Trinitrobenzenesulfonic acid). Severe colitis in mice that was characterized by weight loss and diarrhea. Histologically there were loss of normal structures, visible discrete epithelioid granuloma, multiple erosive lesions, massive transmural inflammation infiltration of lymphocytes, and the loss of goblet cells. […] There was significant alleviation of lesions, few inflammatory infiltration with growing crypts and recovery mucosa epithelia along the column. […] In addition, in TNBS treated colitis mice, there were perianal symptoms: erythema, abscesses and ulcers found in some mice, which may lead to perianal fissures or fistulas. […] The therapeutically effects of R-salbuterol, R-clenbuterol and R-bambuterol on the symptoms in TNBS induced Crohn's disease has never been reported in prior art.

[7] = acute DSS colitis, compared with untreated DSS mice
[8] = one week treatment, evaluation at 23rd day, R-S, S-S 1 mg/kg, R-B, S-B 10 mg/kg
[9] = sub-acute or chronic DSS colitis, compared with untreated DSS mice
[10] = R-Salbutamol 0.05, 0.1 or 0.2 mg/kg

Compound | Hist score (histological score) [1] | FOB (fecal occult blood) [1] | Weight [1] | DAI (disease active index) [1] | Col Length (colon length) [1] | histological index / histological score, in words [3, 9] | other results
C[C@@H]1C[C@H]2[C@@H]3CCC4=CC(=O)C=C[C@]4(C)[C@@]3(F)[C@@H](O)C[C@]2(C)[C@@]1(O)C(=O)CO [DEX, Dexamethasone] | 6 ± 0.5 | 2.5 ± 0.5 | 88 ± 2.4 | 7 | 7.1 ± 0.2 |  | 
CC(C)(C)NCC(O)c1cc(Cl)c(N)c(Cl)c1 (stereo not drawn) [RS-C, RS-clenbuterol] | 6 ± 0.5 | 4 ± 0.1 | 87 ± 2 | 10 | 6.5 ± 0.2^ |  | DAI, in words [1, 7]: much less improvement than DSS mice treated with R-clenbuterol; histological score, in words [1, 7]: better than DSS untreated but worse than R-enantiomer treated mice
CN(C)C(=O)Oc1cc(OC(=O)N(C)C)cc([C@H](O)CNC(C)(C)C)c1 [S-B, S-bambuterol] | 7.5 ± 1^ | 2.5 ± 0.5 | 81 ± 3.2 | 12 | 6 ± 0.6 | markedly higher than untreated DSS mice | damage of articular cartilage, meniscus and bone structure of knee joints [2]: exacerbated; Col Length (colon length) [3, 8]: 6.8 ± 0.1; DAI (disease active index) [3, 8]: 12; FOB (fecal occult blood) [3, 8]: 3.9 ± 0.1; Hist score (histological score) [3, 8]: 6.9 ± 1^; Weight [3, 8]: 96 ± 1.1; length of colon-rectors, in words ([3]; sub-acute DSS colitis, compared with untreated DSS mice): shorter; body weights, in words ([3]; sub-acute or chronic DSS colitis): lower; fecal occult blood, in words ([3]; sub-acute or chronic DSS colitis, day 14th and 22nd, compared with untreated DSS mice): more severe; colon histology (H&E), in words [1]: no signs of improvements; DAI, in words [4]: markedly higher than untreated DSS group; histological score, in words [4]: markedly higher than untreated DSS group
CC(C)(C)NC[C@@H](O)c1cc(O)cc(O)c1 [S-T, S-terbutaline] | 7 ± 1 | 4 ± 0.5 | 80 ± 2.9 | 12 | 5.9 ± 0.5 | much worse than untreated DSS mice | DAI, in words [3, 9]: much worse than untreated DSS mice; colon histology (H&E), in words [1]: no signs of improvements
CC(C)(C)NC[C@@H](O)c1cc(Cl)c(N)c(Cl)c1 [S-clenbuterol] |  |  |  |  |  | much worse than untreated DSS mice | DAI, in words [3, 9]: much worse than untreated DSS mice
COc1ccc2c(c1)c(CC(=O)O)c(C)n2C(=O)c1ccc(Cl)cc1 [indomethacin, reference compound] |  |  |  |  |  |  | erythema score of both ears [5, 10]: lesser effects; thickness score of both ears [5, 10]: lesser effects; eczema histology and inflammatory infiltration ([5]; dose-dependent response): little effects on eczema
infliximab |  |  |  |  |  |  | submucosa fibrosis and narrowing of intestinal lumen [6]: enhanced the submucosa fibrosis and lumen narrowing; submucosa fibrosis and narrowing of intestinal lumen ([6]; listed as IFX): significant submucosa fibrosis and narrowing in lumen

Reference: US20210393549A1, “New use of R-enantiomer of adrenergic beta 2 receptor agonists for treatment of inflammatory bowel disease and its extra intestinal manifestations” (priority 2018, published 2021)
